Patent publication US10292597B2, “Assessing endothelial function and providing calibrated UFMD data using a blood pressure cuff” (The Regents of the University of California, priority 2015, dated 2019)
“Also recorded” adds a separate entry of the source.

Assays:
NO synthase = assay: Single pulse waveforms from the pressure cuff after endothelial stimulation, with NO synthase inhibitor; type: in vivo, human; conditions: cuff inflated to 70 mm Hg; FIG. 3
Description: Both the amplitude and slope of the rising edge of the pulse increase markedly after endothelial stimulation.
In an artery with intact endothelial function, both pulse height (maximal cross-sectional arterial area) and compliance (maximum slope of the rising edge) increase markedly over baseline. […] FIG. 4 illustrates how a five minute cuff occlusion and the ensuring reactive hyperemia lead to major increases in area change per pulse and the maximum derivative of the area per pulse. Both metrics return to baseline levels after 20 minutes. FIG. 5 confirms the repeatability of the protocol by illustrating the effects of a series of two cuff occlusion periods. We see from FIG. 6 that only a small slow drift in the measured quantities occurs when no reactive hyperemic stimulus is applied.
A stimulus is then applied to the subject. Any of a number of stimuli expected to alter endothelial function are contemplated. Such stimuli include, for example, occlusion of blood flow, and/or application of one or more drugs to the subject. Illustrative drugs include, for example, drugs that act as NO agonists (e.g. acetylcholine), β2-adrenergic agonists such as albuterol, acoustic/mechanical tissue vibration, transcutaneous low frequency ultrasound (see, e.g., Iida et al. (2006) J. Amer. Coll. Cardiol., 48(3): 532-537), and the like. […]

brachial artery = assay: Cuff-based measurement of pulse amplitude (proportional to arterial area) before and after a stimulus; type: in vivo, human
Procedure: Three individuals in the age-range of 28-38 were examined. All subjects had Framingham risk scores of 1% or less, and had no history of cardiovascular disease. Each individual was assessed at least three times before and after RH induced by five minutes of suprasystolic cuff occlusion. At least one additional measurement was made using the same protocol, except without cuff inflation. Sensitivity to a 0.4 mg dose of sublingual NG was assessed three times in two individuals.
Sensitivity to a 0.4 mg dose of sublingual NG was assessed three times in two individuals. In the analysis that follows, all of the datasets are pooled by stimulus. This addresses the question: Can the method measure changes in arterial tone due to vasorelaxatory stimuli and with what sensitivity?
A single quantity relating to the recorded pressure data, the pulse amplitude, was studied and it was posited that this is proportional to the arterial area. During the post stimulus interval, pressure data from the cuff were recorded approximately every 80 seconds, for a period of 30 seconds. During each recording interval, the cuff was inflated to 70 mm Hg, which was always below the measured diastolic pressure of the subject. To quantify the observed response, the mean of the pulse quantity (in this case, amplitude) during the response interval was divided by the mean value of the same quantity during the baseline interval. FIG. 10 illustrates the results.
In Table 2, the maximum response for each stimulus is calculated and the statistical significance of the change relative to the NS case (one-tail Student's t test) is evaluated. Values of p<0:05 were considered significant.
(iii) The cuff is inflated to a value Pm, which must be less than the mean arterial pressure, for a period Tm=30 s. During this time interval, we measure and record the pressure fluctuations in the cuff.
v) The stimulus is applied. This is either 1-5 min of cuff occlusion to suprasystolic pressure Ps (for studies of endothelial function) or a dose of sublingual NG (for studies of endothelium-independent vasodilation).
(vi) After Tp=45 s have elapsed following cuff release or drug administration, a series of up to Nr=10 repeat measurement intervals ensue. In each interval, the cuff is inflated to Pm for Tm seconds, after which it is deflated for Tw seconds. This large number of repeat measurements (Nr) is required only when one wishes to record the return of the vessel toward baseline.
(viii) Each post-stimulus response is then compared to the average baseline response, to yield the area-based cFMD metric (Equation 2) defined above. […]
(iv) The maximum of the cFMD metric in Equation 2, analogous to that used for uFMD, expressed directly as a function of the measurement data, is calculated as […]

arterial smooth muscle = conditions: cited from earlier work

Row | Structure (SMILES) | effect on increase of pulse amplitude and rising-edge slope after endothelial stimulation (NO synthase) | change in metric, NG vs. NS (brachial artery; 400 μg sublingual vs zero dose (no stimulus)) [%] | cDmax % (brachial artery; 400 μg sublingual, Table 5) [%] | Mean ± SEM of maximum response over all data sets (dilation response) (brachial artery; 400 μg sublingual, pooled data sets, Table 5) | Mean ± SEM of maximum Response over all data sets (amplitude response, response/baseline) (brachial artery; 0.4 mg sublingual, cuff inflated to 70 mm Hg, pooled data sets, Table 2) | smooth muscle dilation elicited (arterial smooth muscle; 400 μg sublingual dose, Feldman et al. (1979), Adams et al. (1998)) | typical dilation due to nitroglycerin (arterial smooth muscle; observed at Ptm=PS)
1 | COC(=O)[C@@H](N)CCCNC(=N)N[N+](=O)[O-] [L-NAME] | greatly attenuates this response; also recorded: greatly attenuated |  |  |  |  |  | 
2 | O=[N+]([O-])OCC(CO[N+](=O)[O-])O[N+](=O)[O-] [NG, Nitroglycerin] |  | 70 | 70 | 1.70 ± 0.036 | 1.70 ± 0.036 | maximal smooth muscle dilation | ≈ 20%
